Assay results as given in patent US9695155B2, “Herbicidal substituted pyrimidinyloxy benzene compounds” (E. I. DU PONT DE NEMOURS AND COMPANY, priority 2013, dated 2017).

Assays:
barnyardgrass [1] = assay: Test A preemergence; type: in vivo, Echinochloa crus-galli; conditions: for Plant response rating, Barnyardgrass: 0 to 100 scale where 0 is no effect and 100 is complete control
Procedure, shortened: (§1)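 Scoring: eye-based comparison with untreated controls, 0 for no effect through 100 for complete control, at about day 10. Treatments: directed soil spray preemergence; foliar spray postemergence on 2–10 cm plants at the one- to two-leaf stage. Medium: loam soil with sand.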

kochia [2] = assay: Test A preemergence; type: in vivo, Kochia scoparia; conditions: for Plant response rating, Kochia: 0 to 100 scale where 0 is no effect and 100 is complete control
Procedure, shortened: as §1

ragweed [3] = assay: Test A preemergence; type: in vivo, Ambrosia elatior; conditions: for Plant response rating, Ragweed: 0 to 100 scale where 0 is no effect and 100 is complete control
Procedure, shortened: as §1

Italian ryegrass [4] = assay: Test A preemergence; type: in vivo, Lolium multiflorum; conditions: for Plant response rating, Ryegrass, Italian: 0 to 100 scale where 0 is no effect and 100 is complete control
Procedure, shortened: as §1

giant foxtail [5] = assay: Test A preemergence; type: in vivo, Setaria faberii; conditions: for Plant response rating, Foxtail, Giant: 0 to 100 scale where 0 is no effect and 100 is complete control
Procedure, shortened: as §1

pigweed [6] = assay: Test A preemergence; type: in vivo, Amaranthus retroflexus; conditions: for Plant response rating, Pigweed: 0 to 100 scale where 0 is no effect and 100 is complete control
Procedure, shortened: as §1

barnyardgrass [7] = assay: Test A postemergence; type: in vivo, Echinochloa crus-galli; conditions: for Plant response rating, Barnyardgrass: 31 g ai/ha, 0 to 100 scale, 0 no effect, 100 complete control; for Barnyardgrass plant response rating: 125 g ai/ha, 0 to 100 scale where 0 is no effect and 100 is complete control
Procedure, shortened: as §1

kochia [8] = assay: Test A postemergence; type: in vivo, Kochia scoparia; conditions: for Plant response rating, Kochia: 31 g ai/ha, 0 to 100 scale, 0 no effect, 100 complete control; for Kochia plant response rating: 125 g ai/ha, 0 to 100 scale where 0 is no effect and 100 is complete control
Procedure, shortened: as §1

ragweed [9] = assay: Test A postemergence; type: in vivo, Ambrosia elatior; conditions: for Plant response rating, Ragweed: 31 g ai/ha, 0 to 100 scale, 0 no effect, 100 complete control; for Ragweed plant response rating: 125 g ai/ha, 0 to 100 scale where 0 is no effect and 100 is complete control
Procedure, shortened: as §1

Italian ryegrass [10] = assay: Test A postemergence; type: in vivo, Lolium multiflorum; conditions: for Plant response rating, Ryegrass, Italian: 31 g ai/ha, 0 to 100 scale, 0 no effect, 100 complete control; for Ryegrass, Italian plant response rating: 125 g ai/ha, 0 to 100 scale where 0 is no effect and 100 is complete control
Procedure, shortened: as §1

giant foxtail [11] = assay: Test A postemergence; type: in vivo, Setaria faberii; conditions: for Plant response rating, Foxtail, Giant: 31 g ai/ha, 0 to 100 scale, 0 no effect, 100 complete control; for Foxtail, Giant plant response rating: 125 g ai/ha, 0 to 100 scale where 0 is no effect and 100 is complete control
Procedure, shortened: as §1

pigweed [12] = assay: Test A postemergence; type: in vivo, Amaranthus retroflexus; conditions: for Plant response rating, Pigweed: 31 g ai/ha, 0 to 100 scale, 0 no effect, 100 complete control; for Pigweed plant response rating: 125 g ai/ha, 0 to 100 scale where 0 is no effect and 100 is complete control
Procedure, shortened: as §1

wheat = assay: Test A postemergence; type: in vivo, Triticum aestivum; conditions: for Plant response rating, Wheat: 31 g ai/ha, 0 to 100 scale, 0 no effect, 100 complete control; for Wheat plant response rating: 125 g ai/ha, 0 to 100 scale where 0 is no effect and 100 is complete control
Procedure, shortened: as §1

corn = assay: Test A postemergence; type: in vivo, Zea mays; conditions: for Plant response rating, Corn: 31 g ai/ha, 0 to 100 scale, 0 no effect, 100 complete control; for Corn plant response rating: 125 g ai/ha, 0 to 100 scale where 0 is no effect and 100 is complete control
Procedure, shortened: as §1

blackgrass = assay: Test A postemergence; type: in vivo, Alopecurus myosuroides; conditions: for Plant response rating, Blackgrass: 31 g ai/ha, 0 to 100 scale, 0 no effect, 100 complete control; for Blackgrass plant response rating: 125 g ai/ha, 0 to 100 scale where 0 is no effect and 100 is complete control
Procedure, shortened: as §1

galium = assay: Test A postemergence; type: in vivo, Galium aparine; conditions: for Plant response rating, Galium: 31 g ai/ha, 0 to 100 scale, 0 no effect, 100 complete control; for Galium plant response rating: 125 g ai/ha, 0 to 100 scale where 0 is no effect and 100 is complete control
Procedure, shortened: as §1

rice = assay: Test B flooded paddy test; type: in vivo, Oryza sativa; conditions: Flood, 250 g ai/ha; 0 to 100 scale where 0 is no effect and 100 is complete control
Procedure, shortened: (§2)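 Compound added straight to paddy water, with pots kept flooded 3 cm above soil, on plants grown to the 2-leaf stage. Visual scoring 0-100 (100 = complete control) against untreated controls after 13 to 15 greenhouse days.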

sedge, umbrella = assay: Test B flooded paddy test; type: in vivo, Cyperus difformis; conditions: Flood, 250 g ai/ha; 0 to 100 scale where 0 is no effect and 100 is complete control
Procedure, shortened: as §2

Heteranthera limosa = assay: Test B flooded paddy test; type: in vivo; conditions: Flood, 250 g ai/ha; 0 to 100 scale where 0 is no effect and 100 is complete control
Procedure, shortened: as §2

barnyardgrass [13] = assay: Test B flooded paddy test; type: in vivo, Echinochloa crus-galli; conditions: Flood, 250 g ai/ha; 0 to 100 scale where 0 is no effect and 100 is complete control
Procedure, shortened: as §2

[14] = 31 g ai/ha, visual, approximately 10 days

SMILES	Plant response rating, Barnyardgrass (barnyardgrass [1]; 125 g ai/ha)	Plant response rating, Kochia (kochia [2]; 125 g ai/ha)	Plant response rating, Ragweed (ragweed [3]; 125 g ai/ha)	Plant response rating, Ryegrass, Italian (Italian ryegrass [4]; 125 g ai/ha)	Plant response rating, Foxtail, Giant (giant foxtail [5]; 125 g ai/ha)	Plant response rating, Pigweed (pigweed [6]; 125 g ai/ha)	Plant response rating, Barnyardgrass (barnyardgrass [7])	Barnyardgrass plant response rating (barnyardgrass [7])	Plant response rating, Kochia (kochia [8])	Kochia plant response rating (kochia [8])	Plant response rating, Ragweed (ragweed [9])	Ragweed plant response rating (ragweed [9])	Plant response rating, Ryegrass, Italian (Italian ryegrass [10])	Ryegrass, Italian plant response rating (Italian ryegrass [10])	Plant response rating, Foxtail, Giant (giant foxtail [11])	Foxtail, Giant plant response rating (giant foxtail [11])	Plant response rating, Pigweed (pigweed [12])	Pigweed plant response rating (pigweed [12])	Plant response rating, Wheat (wheat)	Wheat plant response rating (wheat)	also measured
CC(C)Oc1cnn(-c2c(Br)cccc2Oc2ncc(F)cn2)c1 [Compound 156]	30	10	0	0	70	0	0	10	0	40	0	40	0	0	0	10	10	20	0	0	Plant response rating, Barnyardgrass (barnyardgrass [1]; [14]): 0; Plant response rating, Kochia (kochia [2]; [14]): 0; Plant response rating, Ragweed (ragweed [3]; [14]): 0; Plant response rating, Ryegrass, Italian (Italian ryegrass [4]; [14]): 0; Plant response rating, Foxtail, Giant (giant foxtail [5]; [14]): 0; Plant response rating, Pigweed (pigweed [6]; [14]): 0; Plant response rating, Corn (corn): 0; Corn plant response rating (corn): 10; Plant response rating, Blackgrass (blackgrass): 0; Blackgrass plant response rating (blackgrass): 20; Plant response rating, Galium (galium): 20; Galium plant response rating (galium): 30; Plant response rating, Rice (rice): 0; Plant response rating, Sedge, Umbrella (sedge, umbrella): 0; Plant response rating, Ducksalad (Heteranthera limosa): 0; Plant response rating, Barnyardgrass (barnyardgrass [13]): 0
FCc1cccc(Oc2ncc(Br)cn2)c1-n1cc(Br)cn1 [Compound 125]	80	50	10	20	100	100	0	90	40	40	0	10	0	10	0	80	30	70	0	20	Barnyardgrass plant response rating (0 to 100 scale) (barnyardgrass [1]; 31 g ai/ha): 10; Kochia plant response rating (0 to 100 scale) (kochia [2]; 31 g ai/ha): 20; Ragweed plant response rating (0 to 100 scale) (ragweed [3]; 31 g ai/ha): 0; Ryegrass, Italian plant response rating (0 to 100 scale) (Italian ryegrass [4]; 31 g ai/ha): 0; Foxtail, Giant plant response rating (0 to 100 scale) (giant foxtail [5]; 31 g ai/ha): 20; Pigweed plant response rating (0 to 100 scale) (pigweed [6]; 31 g ai/ha): 70; Plant response rating, Corn (corn): 20; Corn plant response rating (corn): 50; Plant response rating, Blackgrass (blackgrass): 40; Blackgrass plant response rating (blackgrass): 80; Plant response rating, Galium (galium): 20; Galium plant response rating (galium): 90; Plant response rating, Rice (rice): 0; Plant response rating, Sedge, Umbrella (sedge, umbrella): 70; Plant response rating, Ducksalad (Heteranthera limosa): 70; Plant response rating, Barnyardgrass (barnyardgrass [13]): 0
